Active and inactive are the calls of the source. No cut-off for these calls is given here.

Experimental findings from ChEMBL document CHEMBL5052847, “Identification of compounds that inhibit stress granule formation and tau aggregation by targeting tia1” (2021) are described below.

The species entered for one assay is Homo sapiens. In words: Inhibition of recombinant TIA1 (unknown origin) multimerization measured by FRET assay.
The next assay deals with HT-22. The assay can be described thus: Inhibition of TIA1 endogenously expressed in mouse HT-22 cells at 25 to 100 uM assessed as sodium arsenite-induced stress granule formation and measured by FRET assay relative to control. It is filed as cell-based. The settings on record: dose 25-100 µM.

For the molecule `O=c1c2ccccc2sn1-c1nccs1`, the inhibition entry in the assay filed under Homo sapiens and with HT-22 was “Active” each time.
With `Cc1cccc(-n2sc3ccccc3c2=O)c1`, the inhibition entry in the assay filed under Homo sapiens and with HT-22 was “Active” in each case.
Consider `O=c1c2ccccc2sn1-c1ccc(Cl)cc1`, for which the inhibition result in the assay listed under Homo sapiens and in the assay on HT-22 was “Active” throughout.
With `CN(C)S(=O)(=O)c1cccc(-n2sc3ccccc3c2=O)c1`, the inhibition result in the assay filed under Homo sapiens and in the assay on HT-22 was “Active” in each case.
On to `O=c1c2ccccc2sn1-c1ccc(Cl)c(S(=O)(=O)N2CCOCC2)c1`, for which the inhibition entry in the assay filed under Homo sapiens and in the assay with HT-22 was “Active” each time.
For `O=c1c2ccccc2sn1-c1cccc(S(=O)(=O)Nc2ccc(Cl)cc2)c1`, the inhibition entry in the assay listed under Homo sapiens and in the assay with HT-22 was “Active” in each case.
With `CCN(CC)S(=O)(=O)c1cccc(-n2sc3ccccc3c2=O)c1`, the inhibition entry in the assay filed under Homo sapiens and in the assay on HT-22 was “Active” in each case.
On to `O=C(O)c1ccccc1NS(=O)(=O)c1cccc(-n2sc3ccccc3c2=O)c1`, for which the inhibition entry in the assay listed under Homo sapiens and in the assay on HT-22 was “Active” throughout.
Consider `O=C1c2ccccc2S(=O)(=O)N1c1ccccc1F`, for which the inhibition result in the assay filed under Homo sapiens and in the assay on HT-22 was “Active” in each case.
Turning to `O=c1c2ccccc2sn1-c1cccc(S(=O)(=O)N2CCCCCC2)c1`, the inhibition entry in the assay filed under Homo sapiens and with HT-22 was “Active” each time.
As to `Cc1ccc(C)c(-n2sc3cc(F)ccc3c2=O)c1`, the inhibition entry in the assay filed under Homo sapiens and in the assay with HT-22 was “Active” throughout.
